# Source: patent publication US12064516B2, “Pharmaceutical formulations and uses thereof” (Aldeyra Therapeutics, Inc., priority 2020, dated 2024)
# Marks after values point to notes of the source that are not given here.
# Experiment: Pharmacokinetic comparison of ADX-102 (reproxalap) and compound I-1 in rats
# Type: in vivo, Sprague-Dawley rats
# Conditions: SD Rat
# [1] = oral gavage 10 mg/kg, CMC/Tween
smiles,measurement,setting,value
CC(C)(O)c1nc2ccc(Cl)cc2cc1N [ADX-102],Vss,intravenous data using captisol formulation,1.36 L/kg
same,CL,"intravenous data using captisol formulation, in mL/min/kg",23**
same,AUC 0-inf/Dose,[1],64
same,AUC 0-t/Dose,[1],60
same,AUC(0-inf),[1],640 ng·h/mL
same,AUC(0-t),[1],595 ng·h/mL
same,Cmax,[1],390 ng/mL
same,Tmax,[1],0.5 h
same,t1/2,[1],2.27 h
